The values below come from publication PMC6308099, “Suramin, screened from an approved drug library, inhibits HuR functions and attenuates malignant phenotype of oral cancer cells” (Cancer Medicine, 2018).

The target in this assay is T1, HuR (Homo sapiens, UniProt Q15717).
T1 construct: gene ELAVL1; full-length HuR (326 residues)
As to the kind of experiment: SPR steady state (Biacore T200, immobilized HuR); supported by concentration-dependent positive DSF shift. It counts as binding.

The structures appear in SMILES notation.

T1 sequence (Q15717 whole entry): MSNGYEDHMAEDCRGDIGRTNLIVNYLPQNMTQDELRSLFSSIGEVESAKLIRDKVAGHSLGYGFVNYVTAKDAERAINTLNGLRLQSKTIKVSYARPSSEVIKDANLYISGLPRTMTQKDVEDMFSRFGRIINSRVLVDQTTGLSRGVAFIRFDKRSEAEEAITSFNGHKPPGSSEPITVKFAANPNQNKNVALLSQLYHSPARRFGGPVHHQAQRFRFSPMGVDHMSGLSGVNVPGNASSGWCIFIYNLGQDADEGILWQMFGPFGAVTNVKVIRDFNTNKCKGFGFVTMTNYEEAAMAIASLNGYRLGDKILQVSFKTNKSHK

On to `Cc1ccc(C(=O)Nc2ccc(S(=O)(=O)O)c3cc(S(=O)(=O)O)cc(S(=O)(=O)O)c23)cc1NC(=O)c1cccc(NC(=O)Nc2cccc(C(=O)Nc3cc(C(=O)Nc4ccc(S(=O)(=O)O)c5cc(S(=O)(=O)O)cc(S(=O)(=O)O)c45)ccc3C)c2)c1` [suramin], for which the equilibrium dissociation constant (Kd) (in general, the constant that tells how readily two partners part at equilibrium) was 240 µM.
